What all share (assay): two-electrode voltage clamp, CFTR current in oocytes
Common to all, as to assay type: cell-based

The target in assay [1] is T1, MOR263-3 (Mus musculus, UniProt Q8VFQ2).
T1 sequence (Q8VFQ2 1-330): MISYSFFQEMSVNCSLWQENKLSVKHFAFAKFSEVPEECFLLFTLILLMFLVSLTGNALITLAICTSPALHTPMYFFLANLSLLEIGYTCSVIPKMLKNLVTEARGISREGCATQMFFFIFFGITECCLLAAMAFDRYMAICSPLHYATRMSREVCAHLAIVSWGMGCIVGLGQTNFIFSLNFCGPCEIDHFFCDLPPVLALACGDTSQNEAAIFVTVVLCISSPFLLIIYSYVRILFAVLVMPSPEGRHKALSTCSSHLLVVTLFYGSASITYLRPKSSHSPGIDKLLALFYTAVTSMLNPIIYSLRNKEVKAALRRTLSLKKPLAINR

The target of another assay is T2, rhoMOR263-2 (Mus musculus, UniProt Q9EPG4).
T2 sequence (Q9EPG4 1-317): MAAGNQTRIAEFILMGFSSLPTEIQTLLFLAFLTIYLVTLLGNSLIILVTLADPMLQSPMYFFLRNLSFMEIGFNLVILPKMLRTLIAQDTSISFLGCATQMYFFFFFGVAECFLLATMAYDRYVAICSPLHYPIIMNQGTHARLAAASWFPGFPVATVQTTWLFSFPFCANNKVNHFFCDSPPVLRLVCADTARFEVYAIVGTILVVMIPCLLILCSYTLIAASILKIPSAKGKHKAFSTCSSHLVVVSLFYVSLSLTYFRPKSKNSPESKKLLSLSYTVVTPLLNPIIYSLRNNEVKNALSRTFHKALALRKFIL
As to conditions: agonist; 30 μM.

The target in assay [2] is T1, MOR263-3. The conditions noted are these: agonist; 30 μM.

The structures appear in SMILES notation.

On to `CCC/C=C/C=C/C=O` [trans,trans-2,4-octadienal], for which a half-maximal response at MOR263-3 [1] (EC50) required 21 ± 6 µM.

For `CCCCCC/C=C/C=C/C=O` [trans,trans-2,4-undecadienal], the “two-electrode voltage clamp, CFTR current in oocytes” value (“two-electrode voltage clamp” for short) on rhoMOR263-2 is “MOR263-2 responded well to trans,trans-2,4-decadienal, trans,trans-2,4-undecadienal”.

Take `CCCCC/C=C/C=C/C=O` [trans,trans-2,4-decadienal]: the “two-electrode voltage clamp” value at rhoMOR263-2 is recorded as “MOR263-2 responded well to trans,trans-2,4-decadienal”; at MOR263-3 [2], “MOR263-3 responded well to trans,trans-2,4-nonadienal, trans,trans-2,4-decadienal”.

Regarding `CCCCC/C=C/C=O` [trans-2-octenal], the “two-electrode voltage clamp” value at MOR263-3 [2] is on record as “MOR263-3 responded well to trans,trans-2,4-nonadienal, trans,trans-2,4-decadienal, trans-2-octenal”.

Regarding `CCCCCCC/C=C/C=O` [trans-2-decenal], the “two-electrode voltage clamp” value on rhoMOR263-2 is “MOR263-2 responded well to trans,trans-2,4-decadienal, trans,trans-2,4-undecadienal, trans-2-decenal”.

In the case of `CCCC/C=C/C=C/C=O` [trans,trans-2,4-nonadienal], the “two-electrode voltage clamp” value on MOR263-3 [2] was “MOR263-3 responded well to trans,trans-2,4-nonadienal, trans,trans-2,4-decadienal”.

What is called EC50 is the midpoint of the concentration-response curve. Lower therefore signals an effect from little substance.
